# Entries after “also recorded” stand apart in the source; their conditions may differ. Where two headings read alike, the source gives them in different places. Marks after values point to notes of the source that are not given here.
# Key:
# breast carcinoma MCF-7 = experiment: in vitro cytotoxic activity, Calcein AM microtiter assay; type: cell-based; conditions: Homo sapiens, MCF7; 72 hours; highest concentration 166.7 μM
# Method: (§1) In vitro cytotoxic activity of several of the 6,9-disubstituted purine derivatives of this invention was determined using a microtiter assay with Calcein AM and a panel of cell lines of different histogenetic and species origin; kinetin was also examined as a control. Because only metabolically active cells cleave Calcein AM (tetraacetoxymethyl ester of calcein), the intracellular concentration of calcein corresponds to the number of vital cells in the culture.
# (§2) The following cell lines were used: human osteosarcoma (HOS); breast carcinoma MCF-7; human myeloid leukemia K-562; and mouse fibroblasts NIH3T3. The cells were maintained in Nunc/Corning 80 cm^2 plastic tissue culture flasks and cultured in cell culture medium (DMEM with 5 g/l glucose, 2 mM glutamine, 100 U/ml penicillin, 100 μg/ml streptomycin, 10% fetal calf serum, and sodium bicarbonate).
# (§3) The cell suspensions were prepared and diluted according to the particular cell type and the expected target cell density (2.500-30.000 cells per well based on cell growth characteristics) were added by pipette (80 μl) into 96/well microtiter plates. Inoculates were allowed a pre-incubation period of 24 hours at 37° C. and 5% CO2 for stabilization. Four-fold dilutions of the intended test concentration were added at time zero in 20 μl aliquots to the microtiter plate wells. The test compounds were generally evaluated at six 4-fold dilutions. The highest well concentration used in the present study was 166.7 μM. All samples were examined in triplicates. Incubations of cells with the tested compounds was for 72 hours at 37° C., in 5% CO2 atmosphere and 100% humidity. At the end of the incubation period, Calcein AM was added to a final concentration of 1 μg/ml incubated for 1 hour. Fluorescence intensity (FI) was measured with a Labsystem FIA Reader Fluoroscan Ascent (UK). The cell survival (GI50) was calculated using the following equation: GI50=([…])/(mean FIcontrol well−mean FIblank)×100%. The GI50 value, the drug concentration lethal to 50% of the cells, was calculated from the obtained dose response curves.
# [1] = tested on: human myeloid leukemia K-562; experiment: as above; type: cell-based; conditions: K562, 72 hours, highest concentration 166.7 μM
# Method: as §1, §2, §3
# human osteosarcoma (HOS) = experiment: as above; type: cell-based; conditions: 72 hours, highest concentration 166.7 μM
# Method: as §1, §2, §3
# mouse fibroblasts NIH3T3 = experiment: as above; type: cell-based; conditions: read-out: GI50 NIH-3T3
# Method: as §1, §2, §3
# [2] = tested on: Human forskin fibroblasts (cell line BJ); experiment: in vitro cytotoxic activity, MTT assay; type: cell-based; conditions: 72 hours; BJ fibroblasts at middle passage
# Method: In vitro cytotoxic activity of several of the 6,9-disubstituted purine derivatives of this invention against human diploid fibroblasts was determined by standard MTT assay optimized for 96-well plates. The assay is based on spectrofotometric measurement of the product of metabolic conversion of MTT by mitochondria of living cells.
# Human forskin fibroblasts (cell line BJ) at middle passage were maintained in 75 cm^2 plastic tissue culture flasks and cultured in cell culture medium (DMEM with 5 g/l glucose, 2 mM glutamine, 100 U/ml penicillin, 100 μg/ml streptomycin, 10% fetal calf serum, and sodium bicarbonate).
# About 5,000 cells were seeded per well of the 96-well plate. After 24 hours the cell culture medium was replaced with the cell culture medium containing a test compound. The test compounds were evaluated at six 2-fold dilutions. The highest concentration used in the present study was usually 200 μM. In the case of compounds with limited solubility in the culture medium the highest concentration was adjusted. Every test compound was examined in five replicates. Cells with the test compounds were incubated for 72 hours at 37° C. in 5% CO2 atmosphere and 100% humidity. At the end of the incubation period, the culture medium was replaced with the cell culture medium containing MTT (0.5 mg/ml) and cells were incubated for another 3 hours. The formazan formed was solubilized by DMSO and absorbance at 570 nm was measured. Ability of the tested compounds to inhibit MTT reducing activity of the cells was calculated as IC=(Acompound exposed well−mean Ablank)/(mean Acontrol well−meanAblank)×100%. IC10, the drug concentration causing 10% decrease in MTT reducing activity, was calculated from the obtained dose response curves.
# [3] = tested on: Human diploid fibroblasts (HCA cells); experiment: inhibition of senescence, β-galactosidase staining; type: cell-based; conditions: test compounds about 50 μM at each passage; for Senescent Cells (%) HCA25: passage 25; for Senescent Cells (%) HCA80: passage 80
# Method: Inhibition of senescence by several of the 6,9-disubstituted purine derivatives of this invention was determined; kinetin was also evaluated as a control. […] The medium used for the cell cultivation was removed, the cells were washed twice in PBS, and fixed in 2-3 ml of fixing solution comprised of a 2% formaldehyde and 0.2% glutaraldehyde in PBS. The cells were incubated at room temperature for 5 minutes, and then washed twice with PBS. The cells were subsequently incubated at 37° C. (without CO2) for 1 to 16 hours in 2-3 ml of the solution comprising potassium ferricyanide (5 mM), potassium ferrocyanide (5 mM), MgCl2 (2 mM), X-gal (5-bromo-4-chloro-3-indolyl-β-D-galactopyranoside) (1 mg/ml), in citric/phosphate buffer (pH 6.0). The test compounds (about 50 μM) were added to the medium at each passage. […] In this experiment, only senescent cells were stained blue due to the action of β-galactosidase on the substrate.
# [4] = tested on: Rat C6 glioma (ATCC No. CCL107); experiment: anti-inflammatory activity: isoproterenol-induced intracellular cAMP synthesis; type: cell-based; conditions: cAMP after 30 min with (−)-isoproterenol
# Method: Anti-inflammatory activity of several of the 6,9-disubstituted purine derivatives of this invention was determined; kinetin was also evaluated as a control. Rat C6 glioma (ATCC No. CCL107) was cultivated in monolayer in serum-free chemically defined medium containing Ham's F10/minimal essential medium (1:1 v/v), 2 mM L-glutamine, 1% (v/v) minimal essential medium vitamins (100×), 1% (v/v) minimal essential medium nonessential amino acids (100×), 100 U/ml penicillin, […], and 30 nM sodium selenite. Incubation was performed at 37° C. in a humidified atmosphere. The assays were performed in the logaritmic growth phase at a density of 2.5×10^5 cells/cm^2. Intracellular cAMP synthesis was induced by addition of 5 mM (−)-isoproterenol; various amounts of test compounds were added at the same time as the (−)-isoproterenol. After 30 min incubation at 37° C., the medium was removed and the cellular amount of cAMP was determined using the cAMP-enzyme immunoassay kit from Amersham. The I50 value was determined from a dose-response curve in duplicate.
# photodamaged facial skin = experiment: earlier clinical study of topically applied kinetin (0.1%); type: in vivo, human; conditions: kinetin 0.1% topical; for Mean Improvement from Baseline: Coarse Wrinkles / Mean Improvement from Baseline: Fine Wrinkles / Mean Improvement from Baseline: Mottled Hyperpigmentation / Mean Improvement from Baseline: Overall Skin Condition / Mean Improvement from Baseline: Roughness: expert evaluation; for Subjects Reporting Improvement from Baseline: Blotchiness / Subjects Reporting Improvement from Baseline: Color / Subjects Reporting Improvement from Baseline: Fine Wrinkles / Subjects Reporting Improvement from Baseline: Texture: self assessment
# From the text: This Example compares the clinical data for topically applied 6-furfurylamino-9-(2-tetrahydropyranyl)purine (0.10%) taken from Example 23 with similar clinical data generated for topically applied kinetin (0.1%) from an earlier study. The protocol for the earlier clinical trial for kinetin was similar to the protocol as described in Example 23 for the inventive compound; thirty two female volunteers completed the earlier kinetin study. This comparison is based on the expert evaluations and self evaluations of skin condition for eight and twelve week data for some of the parameters evaluated in both studies.
# [5] = tested on: cultured human fibroblasts; conditions: cited from earlier work
# [6] = NIH3T3, 72 hours, highest concentration 166.7 μM
compound,measurement,setting,value
COc1ccc(CNc2ncnc3c2ncn3C2CCCCO2)cc1 (stereo not drawn) [6-(4-methoxybenzylamino)-9-(2-tetrahydropyranyl)purine],GI50,breast carcinoma MCF-7,> 167 µM
same,GI50,[1],> 167 µM
same,GI50,human osteosarcoma (HOS),> 167 µM
same,GI50,mouse fibroblasts NIH3T3; [6],> 167 µM
same,IC10 (concentration causing 10% decrease in MTT reducing activity),[2],>100 µM
same,Senescent Cells (%) HCA50,[3],3%
same,Senescent Cells (%) HCA25,[3],4%
same,Senescent Cells (%) HCA80,[3],26%
same,melting point,,137 to 138 °C
"c1coc(CNc2ncnc3nc[nH]c23)c1 [Kinetin, N6-furfuryl-adenine]",GI50,breast carcinoma MCF-7,> 167 µM
same,GI50,[1],164 µM
same,GI50,human osteosarcoma (HOS),> 167 µM
same,GI50,"mouse fibroblasts NIH3T3; NIH3T3, 72 h",155 µM
same,Senescent Cells (%) HCA50,[3],5%
same,Senescent Cells (%) HCA25,[3],3%
same,Senescent Cells (%) HCA80,[3],38%
same,Anti-inflammatory Activity Effect,[4],inactive; also recorded: Not active
same,Mean Improvement from Baseline: Coarse Wrinkles,photodamaged facial skin; Eight Week Data,4%
same,Mean Improvement from Baseline: Fine Wrinkles,photodamaged facial skin; Eight Week Data,2%
same,Mean Improvement from Baseline: Mottled Hyperpigmentation,photodamaged facial skin; Eight Week Data,25%*
same,Mean Improvement from Baseline: Overall Skin Condition,photodamaged facial skin; Eight Week Data,3%
same,Mean Improvement from Baseline: Roughness,photodamaged facial skin; Eight Week Data,35%
same,Mean Improvement from Baseline: TEWL,photodamaged facial skin; Eight Week Data,13%
same,Subjects Reporting Improvement from Baseline: Blotchiness,photodamaged facial skin; Eight Week Data,50%
same,Subjects Reporting Improvement from Baseline: Color,photodamaged facial skin; Eight Week Data,53%
same,Subjects Reporting Improvement from Baseline: Fine Wrinkles,photodamaged facial skin; Eight Week Data,57%
same,Subjects Reporting Improvement from Baseline: Texture,photodamaged facial skin; Eight Week Data,77%
same,Mean Improvement from Baseline: Coarse Wrinkles,photodamaged facial skin; Twelve Week Data,4%
same,Mean Improvement from Baseline: Fine Wrinkles,photodamaged facial skin; Twelve Week Data,6%*
same,Mean Improvement from Baseline: Mottled Hyperpigmentation,photodamaged facial skin; Twelve Week Data,25%*
same,Mean Improvement from Baseline: Overall Skin Condition,photodamaged facial skin; Twelve Week Data,4%*
same,Mean Improvement from Baseline: Roughness,photodamaged facial skin; Twelve Week Data,52%*
same,Mean Improvement from Baseline: TEWL,photodamaged facial skin; Twelve Week Data,15%
same,Subjects Reporting Improvement from Baseline: Blotchiness,photodamaged facial skin; Twelve Week Data,74%
same,Subjects Reporting Improvement from Baseline: Color,photodamaged facial skin; Twelve Week Data,71%
same,Subjects Reporting Improvement from Baseline: Fine Wrinkles,photodamaged facial skin; Twelve Week Data,71%
same,Subjects Reporting Improvement from Baseline: Texture,photodamaged facial skin; Twelve Week Data,87%
same,morphological and biochemical characteristics associated with serial passaging of cells,[5],delayed the onset and decreased the extent of many morphological and biochemical characteristics associated with serial passaging of cells
"COc1cc(CNc2ncnc3c2ncn3C2CCCCO2)cc(OC)c1 (stereo not drawn) [6-(3,5-dimethoxybenzylamino)-9-(2-tetrahydropyranyl)purine]",GI50,breast carcinoma MCF-7,> 167 µM
same,GI50,human osteosarcoma (HOS),> 167 µM
same,GI50,mouse fibroblasts NIH3T3; [6],> 167 µM
same,IC10 (concentration causing 10% decrease in MTT reducing activity),[2],>200 µM
same,IC50,"[4]; Rattus norvegicus, C6 glioma, 0.5 h, read-out: Anti-inflammatory Activity I50",11 µM
same,Anti-inflammatory Activity Effect,[4],Inhibition
COc1cccc(CNc2ncnc3c2ncn3C2CCCO2)c1 (stereo not drawn) [6-(3-methoxybenzylamino)-9-(2-tetrahydrofuranyl)purine],GI50,breast carcinoma MCF-7,> 167 µM
same,GI50,human osteosarcoma (HOS),> 167 µM
same,GI50,mouse fibroblasts NIH3T3; [6],> 167 µM
same,melting point,,87 to 88 °C

# From patent US20130072505A1, “6,9-Disubstituted Purine Derivatives and Their Use for Treating Skin” (priority 2006, published 2013)
